According to patent publication US20030176356A1, “Endothelin antagonists and endothelin-converting enzyme inhibitors for the treatment of glaucoma” (University of North Texas Health Science Center, priority 2001, published 2003):
Marks after values point to notes of the source that are not given here. No end group written: not given here. *: point of attachment. dPhe(β-Ph) = β-phenyl D-Phe (N-terminal, N-acetylated), CC(=O)N[C@@H](C(=O)*)C(c1ccccc1)c1ccccc1

What was measured:
[1] = biological target: T1, ECE-1 (Rattus norvegicus, UniProt P42893); assay: ECE-1 activity in plasma membrane fraction of rat lung tissue (conversion of 125I Big ET-1 to 125I ET-1); type: biochemical
T1 construct: The endogenous ECE from the plasma membrane fraction converted the; from tissue; host or cells: rat lung tissue, plasma membrane fraction
T1 sequence (P42893 1-762): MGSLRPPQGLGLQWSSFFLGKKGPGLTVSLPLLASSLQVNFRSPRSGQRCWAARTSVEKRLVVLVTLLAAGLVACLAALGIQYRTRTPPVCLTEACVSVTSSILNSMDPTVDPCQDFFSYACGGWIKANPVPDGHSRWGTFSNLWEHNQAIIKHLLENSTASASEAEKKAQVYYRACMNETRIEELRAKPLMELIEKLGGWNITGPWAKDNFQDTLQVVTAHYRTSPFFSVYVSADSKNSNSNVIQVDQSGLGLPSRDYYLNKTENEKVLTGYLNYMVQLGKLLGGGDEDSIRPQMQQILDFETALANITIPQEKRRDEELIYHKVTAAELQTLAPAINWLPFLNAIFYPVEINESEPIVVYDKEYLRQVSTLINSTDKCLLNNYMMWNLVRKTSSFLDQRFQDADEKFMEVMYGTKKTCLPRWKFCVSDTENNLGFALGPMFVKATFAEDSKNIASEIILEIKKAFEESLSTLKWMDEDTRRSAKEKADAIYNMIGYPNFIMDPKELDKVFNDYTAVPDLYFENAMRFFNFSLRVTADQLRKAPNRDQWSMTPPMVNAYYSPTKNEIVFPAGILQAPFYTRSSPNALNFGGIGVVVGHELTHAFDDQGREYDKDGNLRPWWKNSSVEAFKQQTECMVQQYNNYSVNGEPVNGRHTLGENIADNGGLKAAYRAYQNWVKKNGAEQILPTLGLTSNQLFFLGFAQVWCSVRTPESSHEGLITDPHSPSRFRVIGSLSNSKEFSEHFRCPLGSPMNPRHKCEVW
Protocol: (§1) Fractions were incubated at 37° C. and collected at various time periods ranging from 5 minutes to 24 hours. […] Values represent the mean±SEM for data obtained from replicate samples. Statistical significance of mean [ET-1] among different time periods in HNPE cells as determined by one-way ANOVA and Student-Newman-Keuls multiple comparison test at p<0.05 (5 min n=3; 10 min n=6; 180 min n=9; 24 hrs n=4). Values that were statistically different are identified with an asterisk (“*”). Statistical significance of mean [ET−1] among different time periods in rat lung tissue as determined by one-way ANOVA and Student-Newman-Keuls multiple comparison test at p<0.05 (n=6 for 180 minutes; n=4 for other time periods) and denoted with a cross (“†”). It should be noted that the regression analysis (“r^2”) and line equation (“y=m×+b”) for percent ECE-1 activity were calculated based on a line graph with equal scale on the X axis ranging from 0-1500 minutes.
(§2) Briefly, plasma membrane fractions (e.g. 20 μg total protein) of HNPE cells and rat lung tissue were incubated with 80 fmoles/mg protein of ^125I Big ET-1 for 180 minutes. […] However, each of the samples was divided into two groups: a control; and the CGS 26303 treated group. […] The data were analyzed statistically by one-way ANOVA, and those values that show a significant difference (p<0.05 level) are identified with an asterisk (*).

[2] = biological target: T2, ECE-1 (Homo sapiens, UniProt P42892); assay: ECE-1 activity in plasma membrane fraction of HNPE cells (conversion of 125I Big ET-1 to 125I ET-1); type: biochemical
T2 construct: The endogenous ECE from the plasma membrane fraction converted the; endogenous in cells; host or cells: HNPE cells (human non-pigmented ciliary epithelial), plasma membrane fraction
T2 sequence (P42892 1-770): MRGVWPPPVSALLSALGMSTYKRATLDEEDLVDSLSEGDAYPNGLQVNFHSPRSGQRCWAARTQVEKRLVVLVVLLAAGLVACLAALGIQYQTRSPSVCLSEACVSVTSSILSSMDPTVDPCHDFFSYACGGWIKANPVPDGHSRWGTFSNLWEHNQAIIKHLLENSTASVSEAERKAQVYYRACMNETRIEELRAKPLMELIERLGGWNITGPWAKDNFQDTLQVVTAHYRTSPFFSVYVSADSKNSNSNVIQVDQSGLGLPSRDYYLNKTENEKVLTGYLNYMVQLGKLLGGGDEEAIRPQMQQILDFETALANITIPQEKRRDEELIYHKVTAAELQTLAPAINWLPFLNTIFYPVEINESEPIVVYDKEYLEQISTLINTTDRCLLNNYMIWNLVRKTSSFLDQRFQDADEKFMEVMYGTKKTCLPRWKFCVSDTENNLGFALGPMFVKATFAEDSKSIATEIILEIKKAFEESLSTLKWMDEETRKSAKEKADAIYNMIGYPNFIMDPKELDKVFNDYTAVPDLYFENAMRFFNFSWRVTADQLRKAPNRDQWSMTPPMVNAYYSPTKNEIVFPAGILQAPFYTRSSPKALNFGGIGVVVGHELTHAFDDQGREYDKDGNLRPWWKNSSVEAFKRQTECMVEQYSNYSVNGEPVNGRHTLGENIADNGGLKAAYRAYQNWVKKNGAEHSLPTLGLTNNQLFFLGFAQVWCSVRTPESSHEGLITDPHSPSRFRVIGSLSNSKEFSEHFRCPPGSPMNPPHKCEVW
Protocol: as §1, §2

[3] = test system: rat optic nerve; assay: Anterograde axonal transport in rat optic nerve after intravitreal injection (35S-methionine pulse label); type: in vivo; settings: 28 hour ISI, 2 mmol dose, p>0.999, ANOVA, N=7
Description: Newly synthesized proteins undergoing anterograde axonal transport in the optic nerve were pulse-labeled in either the presence or absence of endothelin as modified from previously published methods (van Biesen et al., 1995). Modifications to previously published methods were minimal and involved the replacement of a distilled water vehicle for resuspension of radiolabeled precursors with either HEPES buffered ET-1 or HEPES vehicle buffer alone. ^35S-Methionine (Easytag EXPRESS PROTEIN LABELING MIX, Dupont-NEN Life Sciences, Boston, Mass.) was lyophilized and resuspended in either vehicle alone (10 mM HEPES, pH 7.4, Sigma Chemical Co., St Louis, Mo.) or in vehicle containing 500 μM ET-1 (Bachem, Belmont, Calif.). Rats were anesthetized by Metofane inhalation, and 0.8 mCi (4 μl) of radiolabel in vehicle either plus or minus ET-1 (final dose 2 mmols), was injected into the vitreous of the left eye using a 30 gauge needle attached to a Hamilton syringe (microliter #710, 22s gauge, Hamilton Co., Reno, Nev.) by polyethylene tubing (PE-20, Clay Adams Brand, Becton Dickson and Co., Sparks, Md.) (van Biesen et al., 1995). In one experiment, ET-3 was substituted for ET-1, using the same methods (2 mmol dose, 28 hour ISI, N=7 for controls, N=7 for experimentals). […] One minute after injection, all retinas appeared normal in color. (Based upon these initial observations, further observations of the retinas were not performed). Information on the dose-related effect(s) of intravitreal ET-1 in this species (i.e. rat) were unavailable, and physiological/pathological concentrations of endothelin in the optic nerve head's microenvironment are generally unknown. Therefore, dose selection was made on the basis of a small pilot study, using these methods and measuring the total pulse-labeled protein axonally transported into the rat optic nerve. (An N of 3 rats in every group was used only for the pilot study, 4 hour ISI, data not shown). […] However, significant effects on axonal transport (4 hour ISI) were only seen in the pilot study for the 2 mmol dose. […] Possible effect(s) on non-assayed ocular tissues were not considered in dose selection, as data on these were unavailable for either acute or chronic intravitreal ET-1 administration, in rats.
This technique was employed to determine if endothelin-1 also affected the axonal transport in the optic nerve of rats, which is severely compromised in glaucoma. Harvest and preparation of pulse-labeled optic nerves in animals, wherein animals were anesthetized with metofane at specified times after injection and sacrificed by decapitation. Injection-sacrifice intervals were selected based upon the published characterizations of anterograde axonal transport in rat optic nerve for specific marker proteins associated with specific classes of axonally transported materials (Table 4) (Elluru et al., 1995; Garner and Lasek, 1981; Garner and Lasek, 1982; Jahn et al., 1985). Seven vehicle-treated animals and seven endothelin-treated animals were sacrificed at each of the specified times (4, 24, 28, 32, 36 hours and 4, 21 days). Optic nerves were removed, flash frozen with crushed dry ice, and sectioned frozen. Nerves were sectioned to aid complete homogenization, and to provide additional data for future studies. The frozen sections (2 mm in length) were numbered as segments 1-4 (from proximal to distal), and glass-on glass homogenized in 100 μlof BUST sample buffer (2% β-mercaptoethanol, 8M urea, 1% SDS, 0.1M Tris, 0.02% phenol red, pH 7.4). A 25% aliquot of each homogenized segment was counted in a liquid scintillation counter, and counts were corrected for decay, quench, and counting efficiency.

[4] = test system: human non-pigmented ciliary epithelial (HNPE) cells; assay: Nitric oxide release from HNPE cells (nitrite, Griess colorimetric assay); type: cell-based; settings: pre-treated with PD-142893 (1 μM) 30 minutes, then 100 nM ET-1, 24 hours; vs ET-1 alone
Protocol: The effect of endothelin-1 (ET-1) and PD-142893, an ETA/B receptor antagonist, on nitric oxide (“NO”) release from human non-pigmented ciliary epithelial (HNPE) cells are illustrated in FIG. 6. The NO released into the culture media from HNPE cells grown in 24-well plates and treated with ET-1 (100 nM) for 24 hours was converted to nitrites. The total amount of nitrites was measured using the Griess colorimetric assay. HNPE cells were pre-treated with PD-142893 (1 μM) for 30 minutes and then 100 nM ET-1 was also added and incubated for 24 hours. The values in FIG. 6 represent the mean±SEM of a ratio between the nitrite produced under experimental conditions divided by the nitrite produced in control cells, which corresponded to 14.4±1.8 μM and controls were expressed as 100% (n=3). Statistical significance of the nitrite released from ET-1 (100 nM) treatment versus the control are denoted with an asterisk (“*”). Statistical significance of the nitrite released from PD-142893+ET-1 (100 nM) treatment versus that of ET-1 (100 nM) are denoted as a double asterisk (“**”) The statistical differenced were determined by one-way ANOVA and Student-Newman-Keuls multiple comparison test (p<0.05). Thus, addition of ET-1 increased the nitrite levels nearly 2-fold when compared to control cells or cells treated with PD-142893.

## O=P(O)(O)CN[C@@H](Cc1ccc(-c2ccccc2)cc1)c1nn[nH]n1 [CGS 26303]
[1]; rat lung plasma membrane fraction, 180 minutes, vs control
  decrease in 125I ET-1: 56%
[1]; rat lung tissue plasma membrane fraction, 100 μM CGS-26303, 180 min, 37° C., control 25 ± 1
  fmoles 125I ET-1 produced/mg protein/180 min: 11 ± 4* fmoles ^125I ET-1 produced/mg protein/180 min
[2]; HNPE cells plasma membrane fraction, 100 μM CGS-26303, 180 min, 37° C., control 27 ± 1
  fmoles 125I ET-1 produced/mg protein/180 min: 12 ± 2* fmoles ^125I ET-1 produced/mg protein/180 min
[2]; HNPE plasma membrane fraction, 180 minute time period, vs control
  decrease in 125I ET-1 production: 55%

## ET-3: ETB-receptor-selective agonist, endothelin isopeptide (CTCFTYKDKECVYYCHLDIIW; ends and bridges not checked; cysteine pairing not given here; UniProt P14138 97-117, looked up)
[3]
  effect of intravitreal ET-3 on anterograde axonal transport compared with ET-1: no significant difference between ET-1 and ET-3

## N-Acetyl-b-phenyl D-Phy-Leu-Asp-Ile-Ile-Trp ({Ac-dPhe(β-Ph)}-LDIIW) [PD-142893, ETA/B receptor antagonist]
[4]
  nitrite production, PD-142893 + ET-1: decrease in nitrite production
